Converted amounts (≈) assume the structure as drawn. Where two headings read alike, the source gives them in different places.
Experiments:
[1] = test system: Human alveolar epithelial cells (A549); assay: Resazurin cytotoxicity assay, A549
Description: (§1) To identify marine samples with activity against MRSA, 1434 compounds from the AIMS Bioresources Library (provided by the Queensland Compound Library, Brisbane, Australia, now called Compounds Australia) were screened in a resazurin cell viability assay.
(§2) Toxicity of AIMS Extract Library. Human alveolar epithelial cells (A549), Madin-Darby canine kidney epithelial cells (MDCK), human leukaemia cells (THP-1), human hepatocellular carcinoma cells (Hep-G2) and human embryonic kidney cells 293 (HEK293) were grown and differentiated in complete RPMI (Roswell Park Memorial Institute Medium) and DMEM (Dulbecco’s Modified Eagle’s medium) tissue culture media (RPMIc and DMEMc, from the Thermo Fisher Scientific, Waltham, MA, USA) by adding 10% FBS, 200 µM L-glutamine and 1 mM HEPES buffer solution. To determine toxicity of the AIMS extract library, 2 × 10^5 of each cell type were added to a 96-well plate and left for 48 h in a humidified 5% CO2 incubator at 37 °C to adhere. Extract samples at a final concentration of 0.5 mg mL^−1 were added to the wells, then the plates incubated for 4 more days in a humidified 5% CO2 incubator at 37 °C. Then, resazurin (10 μL of 0.05% w/v) was added and after 4 h, fluorescence measured as described previously. The cell viability was calculated as percentage fluorescence relative to untreated cells.

P. aeruginosa PAO1 = assay: Resazurin bacterial inhibition assay (MIC), P. aeruginosa; format: cell-based; conditions: Pseudomonas aeruginosa, PAO1; commercial compounds; 18 h, resazurin; read-out: Minimum Inhibitory Concentration P. aeruginosa
[2] = test system: human leukaemia cells (THP-1); assay: Resazurin cytotoxicity assay, THP-1
Description: as §1
as §2, with “Extract samples at a final concentration of 0.5 mg mL^−1 were added to the wells, then the plates incubated for 4 more days in a humidified 5% CO2 incubator at 37 °C.” left out

[3] = test system: methicillin-resistant Staphylococcus aureus (MRSA); assay: Resazurin bacterial inhibition assay (MIC), MRSA; format: cell-based; conditions: commercial compounds, 18 h, resazurin, read-out: Minimum Inhibitory Concentration MRSA
[4] = test system: human embryonic kidney cells 293 (HEK293); assay: Resazurin cytotoxicity assay, HEK 293
Description: as §1, §2

M. tuberculosis H37Rv = assay: Resazurin bacterial inhibition assay (MIC), M. tuberculosis; format: cell-based; conditions: Mycobacterium tuberculosis, 168 h, commercial compounds, 7 days, read-out: Minimum Inhibitory Concentration M. tuberculosis H37Rv
E. coli EC958 = assay: Resazurin bacterial inhibition assay (MIC), E. coli; format: cell-based; conditions: commercial compounds, 18 h, resazurin, read-out: Minimum Inhibitory Concentration E. coli
[5] = test system: human hepatocellular carcinoma cells (Hep-G2); assay: Resazurin cytotoxicity assay, HepG2
Description: as §1, §2

[6] = commercial compounds, unit from Table 8 head
[7] = commercial compounds, unit from Table 8 head, listed as 1,10 phenanthroline

c1cnc2c(c1)ccc1ncccc12 [1,7-phenanthroline]
Minimum Toxicity Concentration A549 [1, 6]: >100 µM
MIC (P. aeruginosa PAO1): 2.5 µM (≈ 0.451 µg/mL)
Minimum Toxicity Concentration THP-1 [2, 6]: >100 µM
MIC ([3]; Staphylococcus aureus, MRSA): 25 µM (≈ 4.51 µg/mL)
Minimum Toxicity Concentration HEK 293 [4, 6]: >100 µM
MIC (M. tuberculosis H37Rv): > 100 µM
MIC (E. coli EC958; Escherichia coli, EC958): 25 µM (≈ 4.51 µg/mL)
Minimum Toxicity Concentration HepG2 [5, 6]: >100 µM

O=C1C(=O)c2cccnc2-c2ncccc21 [1,10-Phenanthroline-5,6-dione]
Minimum Toxicity Concentration A549 ([1]; human, 4 days): 0.1 µM
MIC (P. aeruginosa PAO1): 0.04 µM (≈ 0.00841 µg/mL)
Minimum Toxicity Concentration THP-1 ([2]; human, 4 days): 0.1 µM
MIC ([3]; Staphylococcus aureus, MRSA): 0.04 µM (≈ 0.00841 µg/mL)
MIC [3]: 0.04 µM (≈ 0.00841 µg/mL)
Minimum Toxicity Concentration HEK 293 ([4]; human, 4 days): 0.1 µM
MIC (M. tuberculosis H37Rv): 0.1 µM (≈ 0.021 µg/mL)
MIC (E. coli EC958; Escherichia coli, EC958): 0.04 µM (≈ 0.00841 µg/mL)
Minimum Toxicity Concentration HepG2 ([5]; human, 4 days): 0.1 µM

c1cnc2c(c1)ccc1cccnc12 [1,10-phenanthroline]
Minimum Toxicity Concentration A549 [1, 6]: 3 µM
Minimum Toxicity Concentration A549 [1, 7]: 50 µM
MIC (P. aeruginosa PAO1): 0.3 µM (≈ 0.0541 µg/mL)
Minimum Toxicity Concentration THP-1 [2, 6]: 0.1 µM
Minimum Toxicity Concentration THP-1 [2, 7]: 3 µM
MIC ([3]; Staphylococcus aureus, MRSA): > 100 µM
Minimum Toxicity Concentration HEK 293 [4, 6]: 50 µM
Minimum Toxicity Concentration HEK 293 [4, 7]: 0.1 µM
MIC (M. tuberculosis H37Rv): 0.1 µM (≈ 0.018 µg/mL)
MIC (E. coli EC958; Escherichia coli, EC958): 50 µM (≈ 9.01 µg/mL)
Minimum Toxicity Concentration HepG2 [5, 6]: 0.1 µM

c1ccc(-c2ccccn2)nc1 [2,2′-Bipyridine]
Minimum Toxicity Concentration A549 [1, 6]: >100 µM
MIC (P. aeruginosa PAO1): > 100 µM
Minimum Toxicity Concentration THP-1 [2, 6]: 50 µM
MIC ([3]; Staphylococcus aureus, MRSA): > 100 µM
Minimum Toxicity Concentration HEK 293 [4, 6]: 3 µM
MIC (M. tuberculosis H37Rv): 0.1 µM (≈ 0.0156 µg/mL)
MIC (E. coli EC958; Escherichia coli, EC958): > 100 µM
Minimum Toxicity Concentration HepG2 [5, 6]: 3 µM

Cc1cc(-c2ccccc2)c2ccc3c(-c4ccccc4)cc(C)nc3c2n1 [2,9-Dimethyl-4,7-diphenyl-1,10-phenanthroline]
Minimum Toxicity Concentration A549 ([1]; human, 4 days): >100 µM
MIC (P. aeruginosa PAO1): 50 µM (≈ 18 µg/mL)
Minimum Toxicity Concentration THP-1 ([2]; human, 4 days): >100 µM
MIC ([3]; Staphylococcus aureus, MRSA): 25 µM (≈ 9.01 µg/mL)
Minimum Toxicity Concentration HEK 293 ([4]; human, 4 days): 0.1 µM
MIC (M. tuberculosis H37Rv): 50 µM (≈ 18 µg/mL)
MIC (E. coli EC958; Escherichia coli, EC958): 0.78 µM (≈ 0.281 µg/mL)
Minimum Toxicity Concentration HepG2 ([5]; human, 4 days): 0.1 µM

Cc1cnc2c(ccc3c(C)c(C)cnc32)c1C [3,4,7,8-Tetramethyl-1,10-phenanthroline]
Minimum Toxicity Concentration A549 [1, 6]: 0.1 µM
MIC (P. aeruginosa PAO1): 0.3 µM (≈ 0.0709 µg/mL)
Minimum Toxicity Concentration THP-1 [2, 6]: 0.1 µM
MIC ([3]; Staphylococcus aureus, MRSA): 0.3 µM (≈ 0.0709 µg/mL)
Minimum Toxicity Concentration HEK 293 [4, 6]: 0.1 µM
MIC (M. tuberculosis H37Rv): 0.1 µM (≈ 0.0236 µg/mL)
MIC (E. coli EC958; Escherichia coli, EC958): 0.3 µM (≈ 0.0709 µg/mL)
Minimum Toxicity Concentration HepG2 [5, 6]: 0.1 µM

Cc1ccnc2c1ccc1c(C)ccnc12 [4,7-Dimethyl-1,10-Phenanthrolin]
Minimum Toxicity Concentration A549 ([1]; human, 4 days): 0.1 µM
MIC (P. aeruginosa PAO1): 0.1 µM (≈ 0.0208 µg/mL)
Minimum Toxicity Concentration THP-1 ([2]; human, 4 days): 0.1 µM
MIC ([3]; Staphylococcus aureus, MRSA): 0.3 µM (≈ 0.0625 µg/mL)
Minimum Toxicity Concentration HEK 293 ([4]; human, 4 days): 0.1 µM
MIC (M. tuberculosis H37Rv): 0.1 µM (≈ 0.0208 µg/mL)
MIC (E. coli EC958; Escherichia coli, EC958): 0.3 µM (≈ 0.0625 µg/mL)
Minimum Toxicity Concentration HepG2 ([5]; human, 4 days): 0.1 µM

c1cnc2ccc3ncccc3c2c1 [4,7-phenanthroline]
Minimum Toxicity Concentration A549 [1, 6]: >100 µM
MIC (P. aeruginosa PAO1): 2.5 µM (≈ 0.451 µg/mL)
Minimum Toxicity Concentration THP-1 [2, 6]: >100 µM
MIC ([3]; Staphylococcus aureus, MRSA): 1.5 µM (≈ 0.27 µg/mL)
Minimum Toxicity Concentration HEK 293 [4, 6]: >100 µM
MIC (M. tuberculosis H37Rv): 2.5 µM (≈ 0.451 µg/mL)
MIC (E. coli EC958; Escherichia coli, EC958): 1.5 µM (≈ 0.27 µg/mL)
Minimum Toxicity Concentration HepG2 [5, 6]: >100 µM

Cc1c(C)c2cccnc2c2ncccc12 [5,6-Dimethyl-1,10-phenanthroline]
Minimum Toxicity Concentration A549 [1, 6]: 0.1 µM
MIC (P. aeruginosa PAO1): > 100 µM
Minimum Toxicity Concentration THP-1 [2, 6]: 0.1 µM
MIC ([3]; Staphylococcus aureus, MRSA): 0.3 µM (≈ 0.0625 µg/mL)
Minimum Toxicity Concentration HEK 293 [4, 6]: 0.1 µM
MIC (M. tuberculosis H37Rv): 0.1 µM (≈ 0.0208 µg/mL)
MIC (E. coli EC958; Escherichia coli, EC958): 0.78 µM (≈ 0.162 µg/mL)
Minimum Toxicity Concentration HepG2 [5, 6]: 0.1 µM

O=[N+]([O-])c1cc2cccnc2c2ncccc12 [5-Nitro-1,10-phenanthroline]
Minimum Toxicity Concentration A549 ([1]; human, 4 days): 12 µM
MIC (P. aeruginosa PAO1): > 100 µM
Minimum Toxicity Concentration THP-1 ([2]; human, 4 days): 0.1 µM
MIC ([3]; Staphylococcus aureus, MRSA): 0.09 µM (≈ 0.0203 µg/mL)
Minimum Toxicity Concentration HEK 293 ([4]; human, 4 days): 0.1 µM
MIC (M. tuberculosis H37Rv): 0.1 µM (≈ 0.0225 µg/mL)
MIC (E. coli EC958; Escherichia coli, EC958): 0.78 µM (≈ 0.176 µg/mL)
Minimum Toxicity Concentration HepG2 ([5]; human, 4 days): 0.1 µM

c1ccc(-c2ccnc3c2ccc2c(-c4ccccc4)ccnc23)cc1 [Bathophenanthroline]
Minimum Toxicity Concentration A549 ([1]; human, 4 days): 3 µM
MIC (P. aeruginosa PAO1): 0.03 µM (≈ 0.00997 µg/mL)
Minimum Toxicity Concentration THP-1 ([2]; human, 4 days): 13 µM
MIC ([3]; Staphylococcus aureus, MRSA): 0.09 µM (≈ 0.0299 µg/mL)
Minimum Toxicity Concentration HEK 293 ([4]; human, 4 days): 25 µM
MIC (M. tuberculosis H37Rv): 0.01 µM (≈ 0.00332 µg/mL)
MIC (E. coli EC958; Escherichia coli, EC958): 0.019 µM (≈ 0.00632 µg/mL)
MIC (E. coli EC958): 0.019 µM (≈ 0.00632 µg/mL)
Minimum Toxicity Concentration HepG2 ([5]; human, 4 days): 1.5 µM
